Reference: patent publication US7332279B2 (Glycozym APS, priority 1999, dated 2008)

What was measured:
β3Gal-T2 = biological target: T1, β3Gal-T2 (Homo sapiens, UniProt O43825); test: Galactosyltransferase assay, recombinant β3Gal-T2, saccharide acceptors; assay type: biochemical
T1 construct: The kinetic properties were determined with partially purified, secreted forms of the enzymes; made in house; host or cells: baculovirus; Sf9 / High Five insect cells, medium
T1 sequence (O43825 46-422 limits assumed): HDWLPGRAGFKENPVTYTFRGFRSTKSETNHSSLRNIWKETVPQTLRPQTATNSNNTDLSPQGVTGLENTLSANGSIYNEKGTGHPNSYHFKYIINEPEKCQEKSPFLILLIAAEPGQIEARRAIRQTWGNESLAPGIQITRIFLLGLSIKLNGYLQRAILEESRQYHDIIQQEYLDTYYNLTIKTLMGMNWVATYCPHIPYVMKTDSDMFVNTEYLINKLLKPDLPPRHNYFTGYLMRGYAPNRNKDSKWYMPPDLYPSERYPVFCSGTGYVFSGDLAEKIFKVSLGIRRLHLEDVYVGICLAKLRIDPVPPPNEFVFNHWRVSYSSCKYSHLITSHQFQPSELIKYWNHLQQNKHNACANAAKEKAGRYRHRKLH

β4Gal-T2 = biological target: T2, β4Gal-T2 (Homo sapiens, UniProt O60909); test: Galactosyltransferase assay, recombinant β4Gal-T2, saccharide acceptors; assay type: biochemical
T2 construct: The kinetic properties were determined with partially purified, secreted forms of the enzymes; made in house; host or cells: baculovirus; insect cells (Sf9 / High Five)
T2 sequence (O60909 37-372 limits assumed): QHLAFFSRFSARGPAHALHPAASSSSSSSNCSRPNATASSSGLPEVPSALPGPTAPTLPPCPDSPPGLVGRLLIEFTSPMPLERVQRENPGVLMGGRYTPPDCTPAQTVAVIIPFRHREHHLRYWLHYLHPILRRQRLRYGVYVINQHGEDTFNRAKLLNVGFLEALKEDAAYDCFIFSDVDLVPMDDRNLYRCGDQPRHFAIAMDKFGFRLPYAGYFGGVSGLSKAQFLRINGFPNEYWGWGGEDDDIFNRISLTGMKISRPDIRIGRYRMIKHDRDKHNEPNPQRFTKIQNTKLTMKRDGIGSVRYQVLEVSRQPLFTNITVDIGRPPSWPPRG
Protocol: (§1) An expression construct (pAcGP67-β3Gal-T5-sol) designed to exclude the hydrophobic transmembrane segment and to encode amino acid residues 25-310, was prepared by PCR using P1 genomic DNA, and the primer pair EBER1300 sol (5′-[…]) (SEQ ID NO:3) and EBER1310 (5′-[…]) (SEQ ID NO:4) (FIG. 1), which included BamHI restriction sites. PCR product was cloned into the BamHI site of pAcGP67B (Pharmingen). An expression construct (pVL-β3Gal-T5-full) designed to encode the full coding sequence (from first ATG, FIG. 1) was prepared by PCR with P1 genomic DNA using the primer pair EBER1309 (5′-[…]) (SEQ ID NO:5) and EBER1310. This PCR product was cloned into the BamHI site of pVL1193 (Pharmingen). Both soluble and full length constructs were fully sequenced to confirm fidelity. Plasmids pAcGP67-β3GalT5-sol and pVL-β3Gal-T5-full were co-transfected with Baculo-Gold™ DNA (Pharmingen) as described previously (Bennett, E. P., Hassan, H. and Clausen, H. cDNA cloning and expression of a novel human UDP-N-acetyl-alpha-D-galactosamine. Polypeptide N-acetyl-galactosaminyl-transferase, GalNAc-T3. J. Biol. Chem. 271:17006-17012, 1996). Recombinant Baculo-virus were obtained after two successive amplifications in Sf9 cells grown in serum-containing medium, and titers of virus were estimated by titration in 24-well plates with monitoring of enzyme activities. […] Polypeptide N-acetyl-galactosaminyl-transferase, GalNAc-T3. J. Biol. Chem. 271:17006-17012, 1996). For large scale expression amplified virus was used to infect High Five™ cells grown in serum-free media (Invitrogen) in upright roller bottles shaking at 140 rpm and 27° C.
(§2) The kinetic properties were determined with partially purified, secreted forms of the enzymes. Semipurification of enzymes from serum-free medium of infected High-Five™ cells was performed by sequential Amberlite, DEAE-Sephacel and 5-Sepharose chromatography as described previously (Wandall, H. H., Hassan, H., Mirgorodskaya, E., et al. Substrate specificities of three. members of the human UDP-N-acetyl-alpha-D-galactosamine:Polypeptide Nacetylgalactosaminyltransferase family, GalNAc-T1, -T2, and -T3. J. Biol. Chem. 272:23503-23514, 1997). Comparisons of enzymes were performed relatively to the activity obtained with βGlcNAc-Bz1 (Tables II and III). Full length enzymes were assayed with 1% Triton CF54 homogenates of washed cells. Enzyme assays were performed in 50 μl total reaction mixtures containing 25 mM Cacodylate (pH 7.5), 10 mM MnCl2, 0.25% Triton X-100, 100 μM UDP-[^14C]-Gal (2,600 cpm/nmol) (Amersham), and varying concentrations of acceptor substrates (Sigma) (see Table I for structures). Reaction products were quantified by Dowex-1 chromatography. […] The transfer of Gal was evaluated after acid precipitation by filtration through Whatman GF/C glass fibre filters. […] Assays with glycolipid acceptors were conducted as previously described (Holmes, E. H. Characterization and membrane organization of beta 1-3- and beta 1-4-galactosyltransferases from human colonic adenocarcinoma cell lines Cob 205 and SW403: basis for preferential synthesis of type 1 chain lacto-series carbohydrate structures. Arch Biochem Biophys 270:630-646, 1989) in reaction mixtures containing 2.5 μmol HEPES buffer, pH 7.2, μmol MnCl2, 100 μg taurodeoxycholate or Triton CF-54, 20 μg acceptor glycolipid, 15 nmol UDP-[^14C]-galactose (13,000 cpm/nmol) and enzyme in a total volume of 100 μl. Conditions for incubation and product isolation were as previously described (Id.).

β4Gal-T3 = biological target: T3, β4Gal-T3 (Homo sapiens, UniProt O60512); test: Galactosyltransferase assay, recombinant β4Gal-T3, saccharide acceptors; assay type: biochemical
T3 construct: The kinetic properties were determined with partially purified, secreted forms of the enzymes; made in house; host or cells: baculovirus; insect cells (Sf9 / High Five)
Protocol: as §1, §2

[1] = system: porcine tracheal β3Gal-transferase activity; details: acceptor substrate; read-out: apparent Km, porcine β3Gal-transferase activity; cited from earlier work

T3 sequence (O60512 32-393 limits assumed): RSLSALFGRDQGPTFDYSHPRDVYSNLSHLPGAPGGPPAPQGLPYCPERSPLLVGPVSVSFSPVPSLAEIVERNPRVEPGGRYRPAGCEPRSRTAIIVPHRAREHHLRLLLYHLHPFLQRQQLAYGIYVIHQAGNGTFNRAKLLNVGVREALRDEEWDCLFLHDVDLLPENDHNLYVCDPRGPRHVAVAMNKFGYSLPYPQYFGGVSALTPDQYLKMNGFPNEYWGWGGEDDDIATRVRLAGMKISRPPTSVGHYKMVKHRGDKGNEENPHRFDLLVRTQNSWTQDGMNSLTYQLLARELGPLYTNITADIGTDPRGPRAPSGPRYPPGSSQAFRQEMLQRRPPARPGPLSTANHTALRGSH

Compound: CC(=O)NC1C(OC2C(O)C(CO)OC(Oc3ccc([N+](=O)[O-])cc3)C2NC(C)=O)OC(CO)C(O)C1O [β-D-GlcNAc-(1–3)-α-D-GalNAc-p-Nph]
- β3Gal-T2 activity, acceptor 0.2 mM (β3Gal-T2): 0.0 nmol/min
- β3Gal-T2 ratio to value with βGlcNAc-Bzl, acceptor 0.2 mM (β3Gal-T2): (0.0)
- β3Gal-T2 activity, acceptor 2 mM (β3Gal-T2): 0.0 nmol/min
- β3Gal-T2 ratio to value with βGlcNAc-Bzl, acceptor 2 mM (β3Gal-T2): (0.0)
- β4Gal-T2 activity, acceptor 0.2 mM (β4Gal-T2): 0.2 nmol/min
- β4Gal-T2 ratio to value with βGlcNAc-Bzl, acceptor 0.2 mM (β4Gal-T2): (0.6)
- β4Gal-T2 activity, acceptor 2 mM (β4Gal-T2; 2 mM): 0.01 nmol/min
- β4Gal-T2 ratio to value with βGlcNAc-Bzl, acceptor 2 mM (β4Gal-T2; 2 mM): (0.3)
- β4Gal-T3 activity, acceptor 0.2 mM (β4Gal-T3; 0.2 mM): 0.1 nmol/min
- β4Gal-T3 ratio to value with βGlcNAc-Bzl, acceptor 0.2 mM (β4Gal-T3; 0.2 mM): (0.3)
- β4Gal-T3 activity, acceptor 2 mM (β4Gal-T3; 2 mM): 0.03 nmol/min
- β4Gal-T3 ratio to value with βGlcNAc-Bzl, acceptor 2 mM (β4Gal-T3; 2 mM): (1.0)
- Km [1]: 2400 µM

Compound: CC(=O)N[C@H]1[C@H](OCc2ccccc2)O[C@H](CO)[C@@H](O)[C@@H]1O [β-D-GlcNAc-Bzl]
- β3Gal-T2 activity with β-D-GlcNAc-Bzl (Table III) (β3Gal-T2; β-D-GlcNAc-Bzl at 80 mM): 0.04 nmol/min
- β3Gal-T2 activity with βGlcNAc-Bzl (β3Gal-T2; β-D-GlcNAc-Bzl at 80 mM): 0.04 nmol/min
- β4Gal-T2 activity with βGlcNAc-Bzl (β4Gal-T2; β-D-GlcNAc-Bzl at 0.25 mM): 0.03 nmol/min
- β4Gal-T3 activity with βGlcNAc-Bzl (β4Gal-T3; β-D-GlcNAc-Bzl at 2 mM): 0.03 nmol/min

Compound: CC(=O)N[C@H]1[C@H](OC[C@H]2O[C@H](Oc3ccc([N+](=O)[O-])cc3)[C@H](NC(C)=O)[C@@H](O[C@@H]3O[C@H](CO)[C@H](O)[C@H](O)[C@H]3O)[C@H]2O)O[C@H](CO)[C@@H](O)[C@@H]1O [βGlcNAc(1,6)[βGal(1,3)]αGalNAc-p-Nph]
- β3Gal-T2 activity, acceptor 0.2 mM (β3Gal-T2): 0.0 nmol/min
- β3Gal-T2 ratio to value with βGlcNAc-Bzl, acceptor 0.2 mM (β3Gal-T2): (0.0)
- β3Gal-T2 activity, acceptor 2 mM (β3Gal-T2): 0.0 nmol/min
- β3Gal-T2 ratio to value with βGlcNAc-Bzl, acceptor 2 mM (β3Gal-T2): (0.0)
- β4Gal-T2 activity, acceptor 0.2 mM (β4Gal-T2): 0.03 nmol/min
- β4Gal-T2 ratio to value with βGlcNAc-Bzl, acceptor 0.2 mM (β4Gal-T2): (1.0)
